Test [1] relates to MDA-MB-231 cells transfected with SID. Put plainly: Proliferation assay (MTT) for ERα and RAR activation. The test is classed as cell-based, human. The settings on record: SID-transfected MDA-MB-231; for growth inhibition (MTT): daily for 48 hrs. From the text:
FIG. 5: A. Schematic representations of the promoters and 5′ untranslated regions (5′UTR) of CDH1 and ESR1 used in this study. Positions of CpG dinucleotides are indicated by grey ticks and the transcription initiation sites are represented by black arrows. The relative positions of primer pairs used to PCR amplify immunoprecipitated DNA from ChIP analysis and bisulfite-modified DNA are also indicated. B. H3K4me3 levels on the CDH1 and ESR1 promoter regions increase dramatically in response to SID. ChIP analysis was performed with chromatin from wild type or stably transfected MDA-MB-231 cells as indicated. Cross-linked protein-DNA complexes were immunoprecipitated with an anti-trimethyl H3K4 antibody and amplified by real-time PCR. Results are shown as percentage of input DNA. The RPL30 housekeeping gene is shown as a control. C. Real-time PCR analysis of CDH1 and ESR1 gene expression. Values are shown as molecules per μg total RNA and were derived from the ΔCt between the GAPDH housekeeping gene and the gene of interest. The amount of GAPDH molecules per μg total RNA was determined by absolute quantification. D. The CDH1 and ESR1 promoters undergo demethylation in response to SID. Following bisulfite modification of wild type or stably transfected MDA-MB-231 cells as indicated, specifically amplified PCR products were sequenced using primers corresponding to the promoter/5′UTR of ESR1. Positions of CpG dinucleotides are indicated by grey ticks and the transcription initiation sites are indicated by black arrows. […] Unmethylated CpGs are by represented open circles. CpG positions are shown relative to transcription initiation site. E. Functional assays for ERα and RAR activation. […]
For activation of RARs […] ATRA (all-trans-retinoic acid, pan-RAR agonist) or 100 nM Am580 (retinoibeozoic acid, RARα-specific agonist) was used daily for 48 hours. Cell proliferation was determined by MTT (Thiazolyl Blue Tetrazolium Bromide) colorimetric assay following standard protocols (Invitrogen). The optical density (OD) of reduced MTT was assessed at 570 nm versus 620/630 nm after 4 hr at 37° C. […]

The target of test [2] is GAL4 DBD-Sin3B (fusion of Sin3B with GAL4 DNA binding domain) (UniProt P04386). Put plainly: cell-based or functional assay.
The test system of the next test is Sin3B and MAD. Put plainly: Mammalian two-hybrid assay, GAL4 DBD-Sin3B and VP16AD-MAD in 293T cells. It counts as cell-based. The settings on record: 15 μM peptide applied to the cell culture medium. The text has this: FIG. 2: SID decoy peptide blocks interactions between Sin3 PAH2 and MAD and interferes with recruitment of members of the Sin3 co-repressor complex. A. GST pull-down of MAD by the Sin3A PAH2 domain is blocked by SID peptide. Sin3A PAH2 domain (amino acids 306-450) was expressed in E. coli as a GST fusion and used in a pull down assay for in vitro interaction with 35S-methionine labeled MAD (left panel) or MAD immunoprecipitated from MDA-MB-231 cell lysates (right panel). 25% of input is shown for in vitro translated MAD and 10% of input for immunoprecipitated MAD (input). Assays were performed using 15 μM Tat-SID or Tat-SID^SCR peptide unless otherwise indicated. […] 293T cells were transfected with GAL4^uas×5-Tk-Luc reporter together with mammalian two-hybrid vectors expressing a fusion of Sin3B with GAL4 DNA binding domain (GAL4^DBD) and fusions of MAD and HDAC1 (columns 5-12 and 14-21, respectively) with VP16 activation domain (VP16^AD), as well as SID expression vectors, as indicated. […]
24 hours prior to transfection, 293T cells were plated at 50-60% confluence on 48-well plates. […] 48 hours post-transfection luciferase activity was measured using the Dual Luciferase assay system (Promega) on a Mithras LB940 plate reader (Berthold Technologies). […]

For a further test, the system named is MDA-MB-231 cells. Put plainly: Three-dimensional morphogenesis assay in Matrigel. It counts as cell-based, human. The settings on record: 5 μM peptide; Matrigel 3D culture; colonies counted after 10 days of treatment. Here is the method: FIG. 3: A. Morphogenesis in 3D cultures in Matrigel. MDA-MB-231 and MMTV-Myc cells expressing SID or the double mutant were cultured in 3D-Matrigel for 14 days. […] B. Reversion of the invasive phenotype of the MDA-MB-231 cells in Matrigel 3D cultures. Upper panel indicates change in numbers of invasive versus non invasive colonies (as indicated in crosshatched and non-crosshatched bars, respectively) in the presence of different concentrations (as indicated) of cell penetrating SID or SID^SCR (scrambled control) peptide. The colonies were counted after 10 days of treatment with a medium containing fresh peptide changed every 24 hours. […] The reduction in invasive phenotype was quantified by counting 5 low magnification fields per well done in triplicates (upper panel). The p value was calculated using the unpaired Student t test.
3D cultures of MDA-MB-231 and MMTV-Myc cells stably transfected with pEGFP-SID, pEGFP-SID2Mut or the parent vector pEGFP-N3 were prepared as described by Debnath et al. (Debnath et al2003). Briefly, […] of growth factor depleted Matrigel (BD Biosciences) was applied on 8-well multichamber slides (BD Biosciences) and incubated at 37° C. for 30 minutes. Once the Matrigel solidified 5×10^3 cells were seeded on top of the gels in assay medium containing 2% Matrigel and 20 ng/ml […]. Growth medium was changed daily for 14 days. Once colony formation was evident, the SID or the scramble control peptide was added to the MDA-MB-231 parental cells in the medium starting at day 3. The morphology of the colonies was determined by confocal microscopy. Induction of apoptosis was determined by staining colonies with activated caspase-3 antibody (BD Transduction Labs) and cell polarization by staining with anti-GM130 antibody (BD Transduction Labs). Cell nuclei were visualized by DAPI (Sigma) staining. […]

Chain of GAL4 DBD-Sin3B (fusion of Sin3B with GAL4 DNA binding domain) (P04386 1-147): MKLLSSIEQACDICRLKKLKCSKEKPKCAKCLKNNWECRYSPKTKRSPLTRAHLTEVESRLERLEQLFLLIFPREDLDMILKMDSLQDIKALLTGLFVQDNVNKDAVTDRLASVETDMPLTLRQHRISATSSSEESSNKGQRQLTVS

With `CC1=C(/C=C/C(C)=C/C=C/C(C)=C/C(=O)O)C(C)(C)CCC1` [ATRA, all-trans-retinoic acid], in test [1] (1 uM), the “growth inhibition (MTT)” value was “significant growth inhibition”.

As to `CC/C(=C(\c1ccccc1)c1ccc(OCCN(C)C)cc1)c1ccccc1` [tamoxifen], the “prevention of E2 growth stimulation (MTT)” value in test [1] (2.5 μM tamoxifen plus E2) is reported as “prevention of E2 growth stimulation”.

In the case of AM580, in test [1] (100 nM), the “growth inhibition (MTT)” value was “significant growth inhibition”.

Consider “FLAG-tagged SID (6.6 kDa), expressed from pSID (peptide)”, for which the relative luciferase activity, mammalian two-hybrid with GAL4 DBD-Sin3B and VP16AD-MAD (fold increase) in test [2] worked out at 2.

With “TetR-SID fusion (28.4 kDa), expressed from pTHE”, the relative luciferase activity, mammalian two-hybrid with GAL4 DBD-Sin3B and VP16AD-MAD (fold increase) in test [2] was 2.

In test [2], “VP16AD-MAD (VP16 activation domain as in-frame fusion with full-length MAD) (from UniProt Q05195 1-221)” yielded a relative luciferase activity, mammalian two-hybrid (GAL4UASx5-Tk-Luc reporter, 293T cells) (fold decrease) of 5.

Regarding “YGRKKRRQGGGEQRARRIMERLLEYNMVADL [scrambled control, reference compound]”, the “increase in luciferase activity compared to GAL4 DBD-Sin3B and VP16AD-MAD co-expression” value in the test on Sin3B and MAD was “nor addition of scrambled control peptide led to an increase in luciferase activity”. Also, in the test on MDA-MB-231 cells, the “decrease in number of colonies with invasive phenotype” value is recorded as “did not exert this effect”.
